Marks after values point to notes of the source that are not given here.
Columns and labels:
Phytophthora infestans = assay type: in vivo; details: young tomato plants sprayed, active ingredient concentration of 100 (unit not given); inoculated 1 day after treatment; evaluation 7 days after inoculation; 100% = no infection
Plasmopara viticola = experiment: Plasmopara test (grapevine) / protective; assay type: in vivo; details: young grapevine plants sprayed, active ingredient concentration 10 ppm; evaluation 6 days after inoculation; 100% = no infection
Method: Plasmopara Test (Grapevine)/Protective
To produce an appropriate active ingredient formulation, 1 part by weight of active ingredient is mixed with the specified amounts of solvent and emulsifier, and the concentrate is diluted with water to the desired concentration.
To test for protective efficacy, young plants are sprayed with the active ingredient formulation at the stated application rate. After the spray coating has dried on, the plants are inoculated with an aqueous spore suspension of Plasmopara viticola and then remain in an incubation cabin at approx. 20° C. and 100% relative air humidity for 1 day. Subsequently, the plants are placed in a greenhouse at approx. 21° C. and approx. 90% air humidity for 4 days. The plants are then moistened and placed in an incubation cabin for 1 day.
Evaluation follows 6 days after the inoculation. 0% means an efficacy which corresponds to that of the control, whereas an efficacy of 100% means that no infection is observed.
In this test, the following inventive compounds show, at an active ingredient concentration of 10 ppm, an efficacy of 70% or more: […]

Peronospora brassicae = experiment: Peronospora test (oilseed rape seeds) / seed treatment; assay type: in vivo; details: dose 50 g/dt, 14-day-old plants inoculated, incubated 7 days, infected leaf area, 100% = no disease
Method: Peronospora Test (Oilseed Rape Seeds)/Seed Treatment
The test was conducted under greenhouse conditions.
Oilseed rape seeds treated with an inventive active compound or a combination of inventive active compounds dissolved in N-methyl-2-pyrrolidone and diluted with water to the desired dose were sown in 6*6 cm vessels. The vessels contain 4 cm of a 1:1 mixture of steam-treated field soil and sand. The plants grew at 10° C.
14-day-old plants were inoculated with an aqueous spore suspension of Peronospora brassicae. The vessels containing the plants were incubated in a greenhouse at a temperature of 15° C. and a relative air humidity of 100% for 7 days.
The assessment of the test included the evaluation of the infected leaf area per plant. 0% means an efficiency corresponding to that of the control, while an efficiency of 100% means that no disease is observed.

[1] = LC-MS determination in the acidic range, pH 2.7, 0.1% aqueous formic acid and acetonitrile

SMILES | % eff. (Phytophthora infestans) [%] | % eff. (Plasmopara viticola) [%] | % eff. (Peronospora brassicae) [%] | chromatographic logP (physchem; pH 2.7) | chromatographic logP (physchem; pH 7.8) | Log P [a] [1]
O=C(Cn1nc(C(F)F)cc1C(F)F)N1CCC(c2nc(C3=NOC(COc4ccccc4)C3)cs2)CC1 (stereo not drawn) [I-2, 2-[3,5-Bis(difluoromethyl)-1H-pyrazol-1-yl]-1-(4-{4-[5-(phenoxymethyl)-4,5-dihydro-1,2-oxazol-3-yl]-1,3-thiazol-2-yl}piperidin-1-yl)ethanone] | 100 | 97 | 95 | 3.22 | 3.25 | –
O=C(Cn1nc(C(F)F)cc1C(F)F)N1CCC(c2nc(C3=NOC(COc4ccccc4F)C3)cs2)CC1 (stereo not drawn) [I-3] | 100 | 100 | 98 | – | – | 3.19
O=C(Cn1nc(C(F)F)cc1C(F)F)N1CCC(c2nc(C3=NOC(C(F)(F)c4ccccc4)C3)cs2)CC1 (stereo not drawn) [I-9, 2-[3,5-Bis(difluoromethyl)-1H-pyrazol-1-yl]-1-[4-(4-{5-[difluoro(phenyl)methyl]-4,5-dihydro-1,2-oxazol-3-yl}-1,3-thiazol-2-yl)piperidin-1-yl]ethanone] | 100 | 100 | 97 | 3.41 | – | –
COC(c1ccccc1)C1CC(c2csc(C3(F)CCN(C(=O)Cn4nc(C(F)F)cc4C(F)F)CC3)n2)=NO1 (stereo not drawn) [I-15, 2-[3,5-Bis(difluoromethyl)-1H-pyrazol-1-yl]-1-[4-fluoro-4-(4-{5-[methoxy(phenyl)methyl]-4,5-dihydro-1,2-oxazol-3-yl}-1,3-thiazol-2-yl)piperidin-1-yl]ethanone] | 95 | – | – | 3.56 | – | –
O=C(Nc1cc(C(F)F)ccc1C(F)F)N1CCC(c2nc(C3=NOC(C(F)(F)c4ccccc4)C3)cs2)CC1 (stereo not drawn) [I-16, N-[2,5-Bis(difluoromethyl)phenyl]-4-(4-{5-[difluoro(phenyl)methyl]-4,5-dihydro-1,2-oxazol-3-yl}-1,3-thiazol-2-yl)piperidine-1-carboxamide] | 100 | 87 | – | 3.64 | – | –
FC(F)c1cc(C(F)F)n(CC(=S)N2CCC(c3nc(C4=NOC(C(F)(F)c5ccccc5)C4)cs3)CC2)n1 (stereo not drawn) [I-31, 2-[3,5-Bis(difluoromethyl)-1H-pyrazol-1-yl]-1-[4-(4-{5-[difluoro(phenyl)methyl]-4,5-dihydro-1,2-oxazol-3-yl}-1,3-thiazol-2-yl)piperidin-1-yl]ethanethione] | 100 | 85 | – | 3.88 | – | –
O=C(Cn1nc(C(F)F)cc1C(F)F)N1CCC(c2nc(C3=NOC(COc4c(Br)cccc4Br)C3)cs2)CC1 (stereo not drawn) [I-36] | 100 | 100 | 78 | – | – | 3.9
O=C(Cn1nc(C(F)F)cc1C(F)F)N1CCC(c2nc(C3=NOC(COc4c(F)cccc4F)C3)cs2)CC1 (stereo not drawn) [I-43, 2-[3,5-Bis(difluoromethyl)-1H-pyrazol-1-yl]-1-[4-(4-{5-[(2,6-difluorophenoxy)methyl]-4,5-dihydro-1,2-oxazol-3-yl}-1,3-thiazol-2-yl)piperidin-1-yl]ethanone] | 95 | 100 | 98 | 3.3 | 3.23 | –
Cc1ccc(Cl)cc1NC(=O)N1CCC(c2nc(C3=NOC(COc4c(F)cccc4Cl)C3)cs2)CC1 (stereo not drawn) [I-51] | 95 | 93 | – | – | – | 3.81
Cc1cc(C(F)(F)F)nn1CC(=O)N1CCC(c2nc(C3=NOC(COc4c(F)cccc4F)C3)cs2)CC1 (stereo not drawn) [I-54] | 100 | 97 | – | – | – | 3.34
O=C(Cn1nc(C(F)F)cc1C(F)F)N1CCC(c2nc(C3=NOC(CSc4ccccc4F)C3)cs2)CC1 (stereo not drawn) [I-55] | 94 | 100 | – | – | – | 3.54
Cc1ccc(C)c(NC(=O)N2CCC(c3nc(C4=NOC(COc5c(Cl)cccc5Cl)C4)cs3)CC2)c1 (stereo not drawn) [I-56] | 94 | 100 | – | – | – | 3.89
O=C(Cn1nc(C(F)F)cc1C(F)F)N1CCC(c2nc(C3=NOC(C(F)(F)c4cccs4)C3)cs2)CC1 (stereo not drawn) [I-57] | 95 | 100 | – | – | – | 3.33^[a]
O=C(Cn1nc(C(F)F)cc1C(F)F)N1CCC(c2nc(C3=NOC(CSc4c(Cl)cccc4Cl)C3)cs2)CC1 (stereo not drawn) [I-58] | 94 | 100 | – | – | – | 3.99
Cc1ccc(Cl)cc1NC(=O)N1CCC(c2nc(C3=NOC(COc4c(Cl)cccc4Cl)C3)cs2)CC1 (stereo not drawn) [I-59] | 94 | 100 | – | – | – | 4.08^[a]; 4.08^[b]
O=C(Cn1nc(C(F)F)cc1C(F)F)N1CCC(c2nc(C3=NOC(CSc4ccccc4Cl)C3)cs2)CC1 (stereo not drawn) [I-61] | 91 | 93 | – | – | – | 3.68
Cc1cc(C(F)(F)F)nn1CC(=O)N1CCC(c2nc(C3=NOC(C(C)(C)c4c(F)cccc4F)C3)cs2)CC1 (stereo not drawn) [I-62] | 91 | 96 | – | – | – | 4.09
O=C(Cn1nc(C(F)F)cc1C(F)F)N1CCC(c2nc(C3=NOC(CSc4ccccc4Br)C3)cs2)CC1 (stereo not drawn) [I-63] | 91 | 96 | – | – | – | 3.72
Cc1cc(C(F)(F)F)nn1CC(=O)N1CCC(c2nc(C3=NOC(COc4c(Cl)cccc4Cl)C3)cs2)CC1 (stereo not drawn) [I-65] | 84 | 100 | – | – | – | 3.9
CC(C)(c1c(F)cccc1F)C1CC(c2csc(C3CCN(C(=O)Cn4nc(C(F)F)cc4C(F)F)CC3)n2)=NO1 (stereo not drawn) [I-66] | 94 | 100 | – | – | – | 4.05
Cc1cc(C(F)(F)F)nn1CC(=O)N1CCC(c2nc(C3=NOC(C(C)(C)c4c(F)cccc4Cl)C3)cs2)CC1 (stereo not drawn) [I-67] | 94 | 100 | – | – | – | 4.43
CC(C)(c1c(F)cccc1F)C1CC(c2csc(C3CCN(C(=O)Nc4cc(C(F)F)ccc4C(F)F)CC3)n2)=NO1 (stereo not drawn) [I-68] | 94 | 96 | – | – | – | 4.29
CC(C)(c1c(F)cccc1Cl)C1CC(c2csc(C3CCN(C(=O)Cn4nc(C(F)F)cc4C(F)F)CC3)n2)=NO1 (stereo not drawn) [I-69] | 94 | 95 | – | – | – | 4.32
O=C(Cn1nc(C(F)F)cc1C(F)F)N1CCC(c2nc(C3=NOC(COc4ccccc4Cl)C3)cs2)CC1 (stereo not drawn) [I-71] | 100 | 100 | – | – | – | 3.35
COc1cccc(C=O)c1OCC1CC(c2csc(C3CCN(C(=O)Cn4nc(C(F)F)cc4C(F)F)CC3)n2)=NO1 (stereo not drawn) [I-72] | 95 | 81 | – | – | – | 3.02
O=C(Cn1nc(C(F)F)cc1C(F)F)N1CCC(c2nc(C3=NOC(COc4c(F)cccc4Cl)C3)cs2)CC1 (stereo not drawn) [I-74] | 100 | 100 | – | – | – | 3.44

— patent US20120122928A1 (priority 2010, published 2012)
